From patent US20230233695A1, “MITHRAMYCIN A NANOPARTICLES FOR CANCER TREATMENT” (priority 2021, published 2023) come the findings set out here.

This series concerns Female C57BL/6J mice. Briefly: In vivo toxicity: liver weight and histopathology. As to the method:
In vivo toxicity of MithA and MANP. Cohorts of n=6-7 C57BL/6J females, 8-10 wko were randomized to receive either intravenous or intraperitoneal administration of saline control vehicle, blank polymer, MithA, or MANP as described in TABLES 2A and 2B. Body weight loss exceeding 20%, death, morbidity, changes in behavior, and any other sign of local or systemic toxicity were recorded.
The liver was harvested for histopathological assessment, weighed, and fixed in 4% paraformaldehyde for 24 hours in the 4° C. and processed for and embedded in paraffin. After embedding, sections were cut at […] thickness and mounted on poly-L-lysine-coated glass slides. Sections were stained with Ehrlich's Hematoxylin and Eosin-Phloxine solutions, Periodic Acid-Schiff (+/− pretreatment with 1% Diastase for 30 min), or Hall's Bile stain with Picrosirius red counter stain. Slides were then dehydrated, cover slipped and imaged on Nikon E800 microscope for qualitative assessment of liver injury. In vivo toxicity of Mitha and MANP study design. (A) study design for supplemental figures. (B) study design for FIGS. 11A-11Q.

Where [1] appears, read: five doses 2 mg/kg (eq) on alternating days.

In the case of `CO[C@H](C(=O)[C@@H](O)[C@@H](C)O)[C@@H]1Cc2cc3cc(O[C@H]4C[C@@H](O[C@H]5C[C@@H](O)[C@H](O)[C@@H](C)O5)[C@H](O)[C@@H](C)O4)c(C)c(O)c3c(O)c2C(=O)[C@H]1O[C@H]1C[C@@H](O[C@H]2C[C@@H](O[C@H]3C[C@](C)(O)[C@H](O)[C@@H](C)O3)[C@@H](O)[C@@H](C)O2)[C@H](O)[C@@H](C)O1` [MithA, (2S,3S)-2-[(2S,4R,5R,6R)-4-[(2S,4R,5S,6R)-4-[(2S,4S,5R,6R)-4,5-dihydroxy-4,6-dimethyloxan-2-yl]oxy-5-hydroxy-6-methyloxan-2-yl]oxy-5-hydroxy-6-methyloxan-2-yl]oxy-3-[(1 S,3S,4R)-3,4-dihydroxy-1-methoxy-2-oxopentyl]-6-[(2S,4R,5R,6R)-4-[(2S,4R,5S,6R)-4,5-dihydroxy-6-methyloxan-2-yl]oxy-5-hydroxy-6-methyloxan-2-yl]oxy-8,9-dihydroxy-7-methyl-3,4-dihydro-2H-anthracen-1-one], the liver weight entry reads like this: (5 consecutive days i.p. 4 mg/kg, vs saline) “liver weight reduction”; (5x2 mg/kg i.v. alternating days) “liver weight reduction”. In addition, the liver histology entry (5x4 mg/kg i.p.) was “periportal necrosis with central fatty degeneration, glycogen depletion and bile acid retention”. Also, the “liver histology, Hall's bile stain” value under setting [1] is “retention of bile in large vacuoles”. Also, the “liver histology, Hematoxylin and Eosin stain” value under setting [1] is “periportal hepatocellular necrosis and infiltrates of inflammatory cells, and distension of collecting ducts”. Besides, the “liver histology, Periodic Acid-Schiff (glycogen)” value (five doses 2 mg/kg on alternating days) was “glycogen depletion”.
